Drawing on patent publication EP2998295A1, “Aryl substituted naphthyl sulfonamide derivatives as keap-1 modulators for the treatment of diabetes, obesity, dyslipidemia and related disorders” (SANOFI, priority 2014, dated 2016), this text covers IC50 for twelve compounds.

In one assay the target is T1, human Keap1 kelch domain (amino acids Ala321 -Thr609) (Homo sapiens, UniProt Q14145).
T1 construct: human Keap1 kelch domain (amino acids Ala321 -Thr609)
T1 sequence (Q14145 321-609): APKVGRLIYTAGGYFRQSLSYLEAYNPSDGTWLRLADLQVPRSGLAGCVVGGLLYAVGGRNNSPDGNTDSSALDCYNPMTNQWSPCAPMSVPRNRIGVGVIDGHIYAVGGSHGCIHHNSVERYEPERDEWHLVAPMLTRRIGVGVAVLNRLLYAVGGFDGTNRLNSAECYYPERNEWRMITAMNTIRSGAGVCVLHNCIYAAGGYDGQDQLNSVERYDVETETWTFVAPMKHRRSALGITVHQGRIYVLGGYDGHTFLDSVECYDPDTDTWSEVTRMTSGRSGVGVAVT
Kind of assay: Keap1-Nrf2 peptide binding assay (fluorescence polarisation). As to conditions: Keap1 kelch domain 20 nM, fluorescently labeled Nrf2 peptide 50 nM. Here is the method:
A fluorescence polarisation assay was used to measure binding of the human Keap1 kelch domain (amino acids Ala321 -Thr609) to a fluorescently labeled peptide containing a Keap1 binding site of human Nrf2 (Alexa633-AFFAQLQLDEETGEFL; JPT Technologies, Berlin, Germany). Two microliters of test compound in reaction buffer (phosphate-buffered saline, 2 mM DL-dithiothreitol, 0.015 % (v/v) Brij-35) containing 6 % (v/v) DMSO were mixed with two microliters of the Keap1 kelch domain in reaction buffer in a black 384-well small volume microtiter plate and incubated at ambient temperature for 15 minutes. Thereafter, two microliters were added of the fluorescently labeled Nrf2 peptide in reaction buffer, and the mixture was incubated for a further 30 minutes at ambient temperature. Final concentrations of the Keap1 kelch domain and the fluorescently labeled Nrf2 peptide were 20 nM and 50 nM, respectively.
Fluorescence polarization (FP) was measured at excitation and emission wavelengths of 635 nm and 660 nm, respectively. Positive controls for binding (two microliters of reaction buffer containing 6 % (v/v) DMSO instead of test compound in the same buffer) and negative controls (as positive controls, but without Keap1 kelch domain) were included on each microtiter plate. Data were expressed as percent-inhibition values: percent inhibition = 100⋅(1(|FPcompound-FPnegative control|)/(|FPpositive control-FPnegative control|)) [formula]
IC50 values were determined by testing different compound concentrations and fitting the resulting percent-inhibition values to the following equation using XLFit4: percent inhibition = A + (B-A)/(1 + (((IC50)/([Compound])))^D) [formula]
Parameter A was set to zero, pre-fit values for parameters B and D were set to 100 and 1, respectively.
On the technique in general: Fluorescence polarisation rises when a labelled molecule tumbles more slowly, as on binding a larger partner.
Compound `Cc1cc(C)c(C)c(S(=O)(=O)Nc2cc(-c3ccc(C(=O)O)cc3)cc3ccccc23)c1C` [Example 1, 4-[4-[(2,3,5,6-tetramethylphenyl)sulfonylamino]-2-naphthyl]benzoic acid] had a half-inhibitory concentration (IC50) of 2500 nM. `Cc1cc(C)c(C)c(S(=O)(=O)Nc2cc(-c3cccc(C(=O)O)c3)cc3ccccc23)c1C` [Example 4, 3-[4-[(2,3,5,6-tetramethylphenyl)sulfonylamino]-2-naphthyl]benzoic acid] gave an IC50 of 1500 nM. In turn, `CC(=O)Nc1cc(C(=O)O)cc(-c2cc(NS(=O)(=O)c3c(C)c(C)cc(C)c3C)c3ccccc3c2)c1` [Example 9, 3-acetamido-5-[4-[(2,3,5,6-tetramethylphenyl)sulfonylamino]-2-naphthyl]benzoic acid] registered an IC50 of 400 nM.

Still in this assay, the particulars now being: Keap1 kelch domain 20 nM, fluorescently labeled Nrf2 peptide 50 nM, read-out: IC50.
On to `Cc1cc(C)c(C)c(S(=O)(=O)Nc2cc(-c3ccc(O)c(C(=O)O)c3)cc3ccccc23)c1C` [Example 2, 2-hydroxy-5-[4-[(2,3,5,6-tetramethylphenyl)sulfonylamino]-2-naphthyl]benzoic acid], for which the concentration for half-maximal inhibition (IC50) turned out to be 4100 nM. `Cc1cc(C)c(C)c(S(=O)(=O)Nc2cc(-c3cncc(C(=O)O)c3)cc3ccccc23)c1C` [Example 3, 5-[4-[(2,3,5,6-tetramethylphenyl)sulfonylamino]-2-naphthyl]pyridine-3-carboxylic acid]: the IC50 was 1900 nM. `Cc1cc(C)c(C)c(S(=O)(=O)Nc2cc(-c3cc(F)cc(C(=O)O)c3)cc3ccccc23)c1C` [Example 5, 3-fluoro-5-[4-[(2,3,5,6-tetramethylphenyl)sulfonylamino]-2-naphthyl]benzoic acid]: the IC50 was 2100 nM. Consider `Cc1cc(C)c(C)c(S(=O)(=O)Nc2cc(-c3cccc(C(=O)O)c3F)cc3ccccc23)c1C` [Example 6, 2-fluoro-3-[4-[(2,3,5,6-tetramethylphenyl)sulfonylamino]-2-naphthyl]benzoic acid], for which the half-inhibitory concentration (IC50) is 5600 nM. Take `Cc1cc(C)c(C)c(S(=O)(=O)Nc2cc(-c3cc(Cl)cc(C(=O)O)c3)cc3ccccc23)c1C` [Example 7, 3-chloro-5-[4-[(2,3,5,6-tetramethylphenyl)sulfonylamino]-2-naphthyl]benzoic acid]: the half-maximal inhibitory concentration (IC50) was found to be 3300 nM. Consider `Cc1cc(C)c(C)c(S(=O)(=O)Nc2cc(-c3ccc(Cl)c(C(=O)O)c3)cc3ccccc23)c1C` [Example 8, 2-chloro-5-[4-[(2,3,5,6-tetramethylphenyl)sulfonylamino]-2-naphthyl]benzoic acid], for which the concentration for half-maximal inhibition (IC50) amounted to 1600 nM. Still for that read-out and setting: in the case of `Cc1cc(C)c(C)c(S(=O)(=O)Nc2cc(-c3ccc(F)c(C(=O)O)c3)cc3ccccc23)c1C` [Example 10, 2-fluoro-5-[4-[(2,3,5,6-tetramethylphenyl)sulfonylamino]-2-naphthyl]benzoic acid] it was 1800 nM; in that of `Cc1cc(C)c(C)c(S(=O)(=O)Nc2cc(-c3cc(C(=O)O)n(C)n3)cc3ccccc23)c1C` [Example 11, 2-methyl-5-[4-[(2,3,5,6-tetramethylphenyl)sulfonylamino]-2-naphthyl]pyrazole-3-carboxylic acid], 5700 nM. The same measure, in the same setting: in the case of `Cc1cc(C)c(C)c(S(=O)(=O)Nc2cc(-c3ccc(C(=O)O)s3)cc3ccccc23)c1C` [Example 12, 5-[4-[(2,3,5,6-tetramethylphenyl)sulfonylamino]-2-naphthyl]thiophene-2-carboxylic acid] it was 12000 nM.

As usually defined, the IC50 is the concentration that inhibits the measured activity by half.
